Earlier results as cited in patent US20050169894A1, “Compositions and methods for ex vivo preservation of blood vessels for vascular grafts using inhibitors of Type III and/or Type IV phosphodiesterases” (priority 2003, published 2005).

How the values were obtained:
[1] = system: endothelial cells; conditions: stated as known; about 4 mM
[2] = system: Type IV phosphodiesterase; conditions: at high concentrations; Lugnier and Komas, 1993
[3] = target: Type V phosphodiesterase (Homo sapiens, UniProt O76074); conditions: at high concentrations; Lugnier and Komas, 1993

Structure (SMILES)	concentration toxic to endothelial cells [1]	inhibition of Type IV phosphodiesterase activity [2]	inhibition of Type V phosphodiesterase activity [3]
CCCC(=O)Nc1ncnc2c1ncn2[C@@H]1O[C@@H]2COP(=O)(O)O[C@H]2[C@H]1OC(=O)CCC [db cAMP, dibutyryl adenosine 3′,5′-cyclic monophosphate]	higher than 4 mM	–	–
Cc1[nH]c(=O)c(C#N)cc1-c1ccncc1 [milrinone, Milrinone]	–	inhibits	inhibits
